Consider 17 molecules from patent publication US20240294467A1, “USP9X Inhibitors” (ProDeg, LLC, priority 2021, published 2024).

Like-named read-outs stand apart in the source and are kept apart here. Residues, ends and D or L forms follow the SMILES beside them. *: point of attachment. Cbz = O=C(OCc1ccccc1)*

The Ki is the equilibrium dissociation constant of an inhibitor or competing ligand from its target.

In one test the test system is MDA-MB-231 cells. Briefly: WST-1 cell viability assay. In kind it is cell-based. The settings on record: Homo sapiens. The procedure:
(§1) Compound Compound 9A was tested for the ability to inhibit the proliferation of Mia-Paca-2 pancreatic cancer cells. Mia-Paca-2 and MDA-MB-231 cells were seeded into the wells of a 96 well tissue culture plate in complete medium (10% fetal calf serum) and incubated overnight at 37° C./5% CO2). The medium was exchanged for fresh medium containing varying concentrations of Compound 9A and the plate was incubated for 72 hours at 37° C./5% CO2. The viability of cells at the end of this incubation was assessed with the WST-1 reagent. To 10 ml of warm (37° C.) complete medium, 1 ml WST-1 reagent was added. The medium from the wells of the plate with the Mia-Paca-2 cells was removed and replaced with 100 μL of the WST-1 reagent in complete medium. The plate was incubated at 37 37° C./5% CO2. At timed intervals the absorbance at 450 nm was determined for each well in a UVNis plate reader. For each well the slope of the plot of the absorbance 450 nm vs time was determined. The readings were normalized to that of the wells for the untreated control and a dose-response curve was plotted. A fit to the data was made from a four parameter, variable slope program (GraphPad Prism) and the IC50 was determined.
The TNBC cell line MDA-MB-231 express high levels of Mcl-1 and USP9X in addition to Bcl-2 and Bcl-xL. MDA-MB-231 cells were treated with ABT737 for 72 hours at varying concentrations and underwent western blot analysis.
On the technique in general: Tetrazolium dyes change colour on reduction, which living cells bring about.

The next test has as its system U937 cells. The test is described as follows: WST-1 cell viability assay. In kind it is cell-based. The settings on record: Homo sapiens, U-937, U937 cells. The procedure: as §1
The effect of Compound 7A on U937 cells was assessed using the same experiment described in the Inhibitory Activities against the Proliferation of Mia-Paca-2 and Other Cancer Cells section above. In response to treatment with Compound 7A, proliferation of U937 leukemia cells was inhibited and induced apoptosis was obsessed by trypan blue staining.
U937 cells were treated with the Bcl-2/Bcl-xL inhibitor ABT737 72 hours at varying concentrations and underwent western blot analysis.

The test system of test [1] is Mia-Paca-2 pancreatic cancer cells. Briefly: WST-1 cell viability assay. The settings on record: for cell viability: Mia-Paca-2 pancreatic cells. In kind it is cell-based. The procedure: as §1
(§2) The same procedures were also applied to the compounds Compound 7A, Compound 6A, and Compound 8A to test their inhibitory activities against RKO colon, Mia-Paca-2 pancreatic and BT-549 cancer cells.

The test system of the next test is RKO colon cells. Briefly: WST-1 cell viability assay. In kind it is cell-based. As for the experimental part: as §1, §2
A further test deals with BT-549 cancer cells. Briefly: WST-1 cell viability assay. In kind it is cell-based, human. To be noted: BT-549 cells. As for the experimental part: as §1, §2
In test [2] the target is T1, USP9X (Homo sapiens (Human), UniProt Q93008). The test is described as follows: Steady-state enzyme inhibition kinetics of USP9X. The format is biochemical. The source says: The data were fit to a general model for enzyme inhibition (FIG. 1E) so the values of the parameters determined from the assays specified the mode of inhibition. For example, in the case of α=1 and β=0, it corresponded to purely non-competitive inhibition. For α=infinity and p=1, it corresponded to purely competitive inhibition. The values of all the parameters, KS, KI, kcat, α, and β could be determined from the steady state measurements. The enzyme reactions were set up as described in the Inhibiting the catalytic activity of USP9X section. The concentration of the substrate ubqiutin-rhodamine110 was varied. The initial rates of the reactions were determined at several concentrations of the inhibitor Compound 2A. In order to determine the values of the parameters KS and kcat, the reaction rates in the absence of the inhibitor Compound 2A, the initial reaction rate data were fit to the standard Michaelis-Menten equation v=Vmax [S]/(Km+[S]). The values of α and β could then be determined by fitting the initial rate data of the enzyme reaction at various concentrations of Compound 2A to a modified version of the Michaelis-Menten equation, designating both Vmax and KS apparent to distinguish the apparent values of the parameters determined from these plots to the true values for these parameters determined from the steady state kinetics in the absence of Compound 2A. The values of α and β could be determined from the variation of the slopes and intercepts of the series of double reciprocal plots of 1/v versus 1/[S] for each concentration of Compound 2A. […] The two values determined for KI were from the two different plots.
The two values for KI were determined by two different methods for determining this parameter from the kinetic data: 1 represented a value determined from the slope of the 1/A intercept vs 1/[I] plot; 2 represented a value determined from the y intercept of the 1/A slope vs 1/[I] plot. […] Only the values of the parameters varied for the compounds.
Target sequence in this assay (Q93008 whole entry): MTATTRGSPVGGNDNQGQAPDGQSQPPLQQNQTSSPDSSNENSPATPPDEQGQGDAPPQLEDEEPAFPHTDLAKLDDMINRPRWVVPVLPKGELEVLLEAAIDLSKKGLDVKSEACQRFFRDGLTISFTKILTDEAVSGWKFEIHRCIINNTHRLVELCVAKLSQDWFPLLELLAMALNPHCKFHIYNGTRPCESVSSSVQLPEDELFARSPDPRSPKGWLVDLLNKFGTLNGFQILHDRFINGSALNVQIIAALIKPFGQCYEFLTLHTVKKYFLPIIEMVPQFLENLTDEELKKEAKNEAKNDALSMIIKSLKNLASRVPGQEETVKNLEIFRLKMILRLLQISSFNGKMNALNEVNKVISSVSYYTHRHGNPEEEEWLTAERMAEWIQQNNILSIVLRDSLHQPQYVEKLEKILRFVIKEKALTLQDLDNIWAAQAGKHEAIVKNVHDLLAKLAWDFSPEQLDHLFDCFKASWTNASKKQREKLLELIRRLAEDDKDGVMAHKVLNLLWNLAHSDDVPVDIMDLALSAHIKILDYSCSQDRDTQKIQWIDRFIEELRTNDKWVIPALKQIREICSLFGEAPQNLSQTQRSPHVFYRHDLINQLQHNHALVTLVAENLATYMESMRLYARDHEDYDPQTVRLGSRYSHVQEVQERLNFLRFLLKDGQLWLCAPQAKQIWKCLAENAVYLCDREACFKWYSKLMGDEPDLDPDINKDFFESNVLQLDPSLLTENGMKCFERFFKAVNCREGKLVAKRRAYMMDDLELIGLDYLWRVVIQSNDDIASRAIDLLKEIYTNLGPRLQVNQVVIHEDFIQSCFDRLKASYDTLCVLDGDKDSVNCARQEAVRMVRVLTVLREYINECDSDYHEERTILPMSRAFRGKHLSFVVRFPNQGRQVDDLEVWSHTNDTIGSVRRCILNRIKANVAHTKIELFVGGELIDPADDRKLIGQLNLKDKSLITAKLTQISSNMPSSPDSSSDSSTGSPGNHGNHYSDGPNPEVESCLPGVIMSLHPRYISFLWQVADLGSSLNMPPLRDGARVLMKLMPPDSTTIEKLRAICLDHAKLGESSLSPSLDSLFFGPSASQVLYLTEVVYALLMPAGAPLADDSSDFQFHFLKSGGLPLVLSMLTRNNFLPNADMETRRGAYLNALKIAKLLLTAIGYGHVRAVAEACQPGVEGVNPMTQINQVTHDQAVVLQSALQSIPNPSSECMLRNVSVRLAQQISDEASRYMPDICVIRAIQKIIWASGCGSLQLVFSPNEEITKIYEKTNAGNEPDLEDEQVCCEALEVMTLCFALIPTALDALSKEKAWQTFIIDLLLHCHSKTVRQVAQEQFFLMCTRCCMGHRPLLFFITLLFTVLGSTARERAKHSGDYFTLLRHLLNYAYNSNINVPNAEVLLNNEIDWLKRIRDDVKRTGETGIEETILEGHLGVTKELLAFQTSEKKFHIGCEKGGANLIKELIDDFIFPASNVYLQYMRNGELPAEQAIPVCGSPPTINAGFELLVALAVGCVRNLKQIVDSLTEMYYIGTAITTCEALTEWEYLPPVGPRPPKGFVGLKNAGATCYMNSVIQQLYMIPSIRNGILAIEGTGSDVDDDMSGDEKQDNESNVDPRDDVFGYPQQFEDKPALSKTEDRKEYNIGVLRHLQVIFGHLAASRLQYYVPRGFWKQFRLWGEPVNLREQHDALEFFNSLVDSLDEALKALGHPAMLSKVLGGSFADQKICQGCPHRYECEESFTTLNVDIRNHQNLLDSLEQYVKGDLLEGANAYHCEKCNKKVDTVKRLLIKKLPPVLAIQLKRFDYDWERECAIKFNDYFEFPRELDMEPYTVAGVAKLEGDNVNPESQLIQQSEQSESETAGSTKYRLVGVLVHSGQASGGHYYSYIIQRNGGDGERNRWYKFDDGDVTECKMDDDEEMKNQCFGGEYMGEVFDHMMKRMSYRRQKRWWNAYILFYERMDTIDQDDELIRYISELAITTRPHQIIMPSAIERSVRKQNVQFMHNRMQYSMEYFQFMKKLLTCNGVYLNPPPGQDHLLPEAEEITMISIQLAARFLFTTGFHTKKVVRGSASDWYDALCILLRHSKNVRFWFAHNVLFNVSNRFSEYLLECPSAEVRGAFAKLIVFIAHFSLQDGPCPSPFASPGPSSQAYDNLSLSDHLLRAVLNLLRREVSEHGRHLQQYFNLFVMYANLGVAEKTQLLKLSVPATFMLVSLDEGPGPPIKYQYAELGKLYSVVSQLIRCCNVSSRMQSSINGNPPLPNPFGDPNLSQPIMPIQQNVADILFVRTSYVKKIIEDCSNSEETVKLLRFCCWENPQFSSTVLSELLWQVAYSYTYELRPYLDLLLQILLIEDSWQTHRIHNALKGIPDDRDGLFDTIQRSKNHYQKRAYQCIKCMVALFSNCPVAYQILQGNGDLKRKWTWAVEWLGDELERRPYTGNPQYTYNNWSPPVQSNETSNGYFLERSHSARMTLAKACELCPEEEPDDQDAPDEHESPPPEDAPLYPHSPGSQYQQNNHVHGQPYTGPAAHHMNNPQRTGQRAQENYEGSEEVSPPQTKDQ

Test [3] deals with T1, USP9X. Briefly: USP9X enzyme activity assay, ubiquitin-rhodamine110 substrate.
Target sequence in this assay (Q93008 whole entry): as above
Method: The inhibition property of compound Compound 1A was evaluated in assays measuring the ability of USP9X to catalyze the hydrolysis of the amide bond between the C terminal carboxylate of ubiquitin and rhodamine110 of the fluorogenic substrate ubiquitin-rhodamine 110. To the wells of a 96 well reaction plate was added 12.5 μL USP9X solution (1.3 nM) in assay buffer (100 mM NaCl, 1 mM DTT, 0.1% bovine serum albumin, 0.05% Tween 20, 50 mM Tris, pH 7.5). 12.5 μL of Compound 1A in assay buffer (4×final concentration) was added to the wells containing the USP9X solution, and the solution was gently mixed by pipetting up and down several times. The plate was sealed and incubated at room temperature for 20 minutes.
Then 25 μL of the 1 μM substrate (ubiquitin-rhodaminel10) solution was added in assay buffer. The final substrate concentration was 0.5 μM. […] The slope for the rate of change of the fluorescence was determined and plotted vs the concentration of Compound 1A.
USP9X enzyme assays were set up in a 96 well plate to assess the abilities of Compound 3A and Compound 4A to inhibit the activity of USP9X, respectively. Ubiquitin-rhodamine110 was used as the substrate and ubiquitin aldehyde was included in the assay as a positive control.
Purified recombinant USPx9 (R&D Systems) in 50 mM Tris buffer pH 7.5, 1 mM DTT, 100 mM NaCl, 0.05% Tween 20 and 0/1% BSA is used at a concentration of 0.325 nM with 0.5 μM ubiquitin-rhodamine (R&D Systems).
For test [4], the target named is T1, USP9X. The settings on record: cited from earlier work.
Target sequence in this assay (Q93008 whole entry, species assumed): as the sequence (Q93008 whole entry) above
Another test deals with USP5 (Homo sapiens (Human), UniProt P45974). To be noted: cited from earlier work.
Chain of USP5 (P45974 whole entry, species assumed): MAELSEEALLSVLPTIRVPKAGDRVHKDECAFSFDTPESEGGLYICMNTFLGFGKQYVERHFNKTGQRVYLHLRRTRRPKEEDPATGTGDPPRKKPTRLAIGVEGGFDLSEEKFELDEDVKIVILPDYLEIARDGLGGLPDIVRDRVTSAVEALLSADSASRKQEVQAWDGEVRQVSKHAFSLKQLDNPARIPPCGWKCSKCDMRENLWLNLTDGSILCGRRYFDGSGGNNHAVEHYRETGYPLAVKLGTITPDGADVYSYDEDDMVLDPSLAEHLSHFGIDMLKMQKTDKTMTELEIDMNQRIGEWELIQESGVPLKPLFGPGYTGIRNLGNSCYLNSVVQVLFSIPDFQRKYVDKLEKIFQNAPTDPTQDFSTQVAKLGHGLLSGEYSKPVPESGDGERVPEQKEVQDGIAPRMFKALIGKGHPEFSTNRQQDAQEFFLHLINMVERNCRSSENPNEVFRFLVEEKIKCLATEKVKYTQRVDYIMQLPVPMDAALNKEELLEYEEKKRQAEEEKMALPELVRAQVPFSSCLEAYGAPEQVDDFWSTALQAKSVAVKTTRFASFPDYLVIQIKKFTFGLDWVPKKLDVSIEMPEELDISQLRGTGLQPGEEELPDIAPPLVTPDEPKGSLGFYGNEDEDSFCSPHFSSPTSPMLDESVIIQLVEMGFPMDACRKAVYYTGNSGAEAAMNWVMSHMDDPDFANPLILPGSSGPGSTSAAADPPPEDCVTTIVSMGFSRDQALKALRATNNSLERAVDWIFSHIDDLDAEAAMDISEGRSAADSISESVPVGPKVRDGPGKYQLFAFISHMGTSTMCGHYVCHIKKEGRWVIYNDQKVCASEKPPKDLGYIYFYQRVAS
In another test the target is USP24 (Homo sapiens (Human), UniProt Q9UPU5). To be noted: cited from earlier work.
The subject of another test is Mcl-1. Briefly: Western blot of Mcl-1 in U937 cells. In kind it is cell-based. To be noted: agent alone. The procedure:
After 24 hours treatment with Compound 7A, U937 cells were collected by centrifugation and whole cell lysates were prepared. These lysates were analyzed by Western blot to determine the level of Mcl-1. Western blot analysis was carried out as previously described (Wang et al., 2014 Journal of the American Society of Nephrology DOI: 10.1681/asn.2013060665). The band intensity for Mcl-1 in these samples were normalized to that of tubulin to correct for any inconsistencies in total protein in loading and processing the whole cell lysates.
To investigate the mechanism of action, Western blot analysis was carried out to test the induced degradation of USP9X substrate Mcl-1 by the compounds under the effects of protein synthesis inhibitor cycloheximide and/or proteasome inhibitor MG132. U937 cells were treated with 10 μM cycloheximide for one hour, with 10 μM MG132 for one hour, with the combination of 10 μM cycloheximide and 10 μM MG132 for one hour, and with vehicle (DMSO) for one hour, respectively, prior to the treatment with Compound 5A for 24 hrs. The U937 cells were harvested after treatment and whole cell lysates were prepared. These lysates were analyzed by Western blot to determine the abundance of Mcl-1 as well as that of tubulin as a normalization control. […] The band intensity of the Mcl-1 in cells treated with cycloheximide alone (Lane 2) was reduced relative to that for tubulin. […] Global blockade of protein synthesis by cycloheximide led to a significant decrease in the expression levels, especially for short lived Mcl-1. The retention of a reduced portion of Mcl-1 indicated the immunity of this portion to proteasomal degradation. […] In contrast, the band intensity of Mcl-1 relative to that of tubulin increased upon treatment of U937 cells with the proteasome inhibitor MG132 (Lane 4). […] Together, the results of this Example are consistent with the compounds acting on the proposed mechanism that intracellular inhibition of the deubiquitylase activity of USP9X blocks its ability to rescue USP9X substrates such as Mcl-1 from proteasomal degradation. In other aspects, by varying the concentration ratios of the compound and proteasome inhibitor for treating cells, it was possible to achieve controlled degradation of a USP9X substrate so the substrate could decline to a desirable level rather than degrade entirely.
A general note: A western blot detects proteins with antibodies after separation by electrophoresis.

Setting [5] is: 72 hours, single agent, read-out: IC50, cell viability.
Setting [6] is: read-out: USP9X IC50/UM, Table 8.

Regarding `CN(C)CC[C@H](CSc1ccccc1)Nc1ccc(S(=O)(=O)NC(=O)c2ccc(N3CCN(Cc4ccccc4-c4ccc(Cl)cc4)CC3)cc2)cc1[N+](=O)[O-]` [ABT737, reference compound], the IC50 in the test on MDA-MB-231 cells (setting [5]) is 8700 nM; with MDA-MB-231 cells (co-treated with 10 μM Compound 5A, read-out: IC50 of ABT737 with co-treatment), 1800 nM; in the test with U937 cells (72-hour treatment, single agent, read-out: IC50, cell viability) it was 3400 nM; in the test on U937 cells (with 0.5 μM Compound 7A, read-out: IC50 of ABT737 with co-treatment), 60 nM.
In the case of `CN1CCCCOc2ccc(cc2)C(=O)NCc2cccc(c2)C(=O)N[C@@H](CC(C)(C)C)C(=O)Nc2ccc(cc2)CCC1=O` [Compound 6A], the “cell viability” value (in [1]; in the test on RKO colon cells; in the test on BT-549 cancer cells) was “significant decreases” each time.
For the molecule `CN1CCCCOc2ccc(cc2)C(=O)NCc2ccc(F)c(c2)C(=O)N[C@@H](CC(C)(C)C)C(=O)Nc2ccc(cc2)CCC1=O` [Compound 8A], the “cell viability” value (in test [1]; in the test with RKO colon cells; in the test on BT-549 cancer cells) was “significant decreases” in each case.
For `CN1CCOc2ccc(c(F)c2)C(=O)NCc2cccc(c2)C(=O)N[C@@H](CC(C)(C)C)C(=O)Nc2ccc(cc2)CCN(C)C(=O)CC(C)(C)CC1=O` [Compound 9A], the IC50 in test [1] (Homo sapiens, Mia-Paca-2 cells, 72 hours, read-out: IC50, inhibition of proliferation) is 10 nM; with MDA-MB-231 cells (setting [5]), 2000 nM.
For `CN1CCOc2ccc(c(F)c2)C(=O)NCc2ccc(F)c(c2)C(=O)N[C@@H](CC(C)(C)C)C(=O)Nc2ccc(cc2)CCN(C)C(=O)CC(C)(C)CC1=O` [Compound 11A], at USP9X [2], the “KS” value was 0.91 µM, the “VMAX RFU/min” value amounted to 408 RFU/min, the α came out at 2 and the β is recorded as 0.88. For the same molecule, the Ki at USP9X [2] (from the slope of the 1/Δ intercept vs 1/[I] plot, read-out: KI, nM (1)) came to 7 nM. Moreover, on USP9X [2] (from the y intercept of the 1/Δ slope vs 1/[I] plot, read-out: KI, nM (2)), the Ki came out at 69 nM. Also, the IC50 on USP9X [3] (read-out: IC50 for the inhibition of USP9X activity, ubiquitin-rhodamine110 substrate) came to 48 nM. The IC50 on USP9X [3] (read-out: USP9X IC50 nM, Table 2) stood at 48 nM.
Turning to `CC(=O)Nc1ccc(CCNC(=O)CC(C)(C)CC(=O)NCCOc2ccc(C(=O)NCc3cccc(C(=O)N[C@@H](CC(C)(C)C)C(=O)O)c3)cc2)cc1` [Compound 67], at USP9X [3] (Table 8), the “USP9X IC50/UM” value is on record as more than 50 UM.
As to `CNC(=O)[C@H](CC(C)(C)C)NC(=O)c1cccc(CNC(=O)c2ccc(OCCNC(=O)CC(C)(C)CC(=O)NCCc3ccc(NC(C)=O)cc3)cc2)c1` [Compound 68], the “USP9X IC50/UM” value on USP9X [3] (Table 8) is on record as more than 50 UM.
Regarding `CC(C)(C)C[C@H](N)C(=O)Nc1ccc(CCNC(=O)CC(C)(C)CC(=O)NCCOc2ccc(C(=O)NCc3cccc(C(=O)O)c3)cc2)cc1` [Compound 69], at USP9X [3] (Table 8), the “USP9X IC50/UM” value is more than 50 UM.
For the molecule `CC(=O)N[C@@H](CC(C)(C)C)C(=O)Nc1ccc(CCNC(=O)CC(C)(C)CC(=O)NCCOc2ccc(C(=O)NCc3cccc(C(=O)O)c3)cc2)cc1` [Compound 70], the “USP9X IC50/UM” value at USP9X [3] (Table 8) is recorded as more than 50 UM.
For `CNC(=O)c1cccc(CNC(=O)c2ccc(OCCNC(=O)CC(C)(C)CC(=O)NCCc3ccc(NC(=O)[C@H](CC(C)(C)C)NC(C)=O)cc3)cc2)c1` [Compound 71], the “USP9X IC50/UM” value at USP9X [3] (Table 8) was more than 50 UM.
`CC(C)(C)C[C@H](NC(=O)c1cccc(CN)c1)C(=O)Nc1ccc(CCNC(=O)CC(C)(C)CC(=O)NCCOc2ccc(C(=O)O)cc2)cc1` [Compound 72]: the IC50 at USP9X [3] (setting [6]) was 29000 nM.
For `CC(=O)NCc1cccc(C(=O)N[C@@H](CC(C)(C)C)C(=O)Nc2ccc(CCNC(=O)CC(C)(C)CC(=O)NCCOc3ccc(C(=O)O)cc3)cc2)c1` [Compound 73], on USP9X [3] (setting [6]), the IC50 stood at 15000 nM.
The same measure, in the same setting: the figure for `CNC(=O)c1ccc(OCCNC(=O)CC(C)(C)CC(=O)NCCc2ccc(NC(=O)[C@H](CC(C)(C)C)NC(=O)c3cccc(CNC(C)=O)c3)cc2)cc1` [Compound 74] is 12000 nM.
Turning to `CCCC(NC(=O)/C(C#N)=C/c1nc(Cl)ccc1Cl)c1ccc(OCCN2CCOCC2)cc1` (stereo not shown) [EOAI3402143], at USP9X [4], the “inhibits USP9X” value is on record as “inhibits”. Further, at USP5, the “inhibits USP5” value is “inhibits”. The “inhibits USP24” value on USP24 is “inhibits”.
On to `CC(C)C[C@@H](C=O)NC(=O)[C@H](CC(C)C)NC(=O)[C@H](CC(C)C)NC(=O)OCc1ccccc1` [MG132, reference compound] (Cbz-Leu-Leu-Leu-aldehyde), for which the “band intensity of Mcl-1 relative to tubulin” value with Mcl-1 is listed as “increased”.
For `C[C@@H]1C[C@@H]([C@H](O)CC2CC(=O)NC(=O)C2)C(=O)[C@@H](C)C1` [cycloheximide, reference compound], the “band intensity of Mcl-1 relative to tubulin” value in the test with Mcl-1 was “reduced”.
As to ubiquitin aldehyde [reference compound], on USP9X [3] (ubiquitin-rhodamine110 substrate), the “effect on USP9X activity” value is “completely abolished”.
